This test addresses T1, HSP-90 (Homo sapiens, UniProt P07900).
T1 construct: fused on or other part: 6-His tag at the C-terminus
The test can be described thus: HSP-90 SPA (scintillation proximity assay) competition binding assay, displacement of tritiated propyl-Geldanamycin. Particulars: for inhibition at 1 µM: read-out: % inhibition @ 1 μM; for inhibition at 10 µM: read-out: % inhibition @ 10 μM. The procedure:
Compounds of the present invention were evaluated for potency against HSP-90 using a SPA (scintillation proximity assay) competition binding assay. Briefly, either full length or N-terminal HSP-90 that contains a 6-His tag on its C-terminus binds to copper on Yttrium-silicate scintillant beads via the His-tag. Tritiated propyl-Geldanamycin (pGA), whose structure is shown below, is an analog of a natural inhibitor of HSP-90 called Geldanamycin.
Tritiated pGA, which contains a tritiated propyl-amine group added at the #17 position, binds HSP-90 and brings the isotope into proximity with the beads. […] The beta signal emitted from the isotope excites the scintillant, which creates a measurable signal. As competitive compounds are added to the assay mixture, they compete with bound tritiated pGA at the ATP-binding site on the N-terminal of HSP-90. When a compound displaces the labeled pGA, the signal is reduced (the beta-particles are no longer in proximity with the bead). This reduction in signal is used to quantify the extent to which the inhibitor/compound is competitive with pGA.
Typical reaction solutions contained 30 nM HSP-90 and 200 nM ^3H-pGA in binding buffer (100 mM Hepes, pH 7.5 and 150 mM KCl). […] Inhibitors were added to the HSP-90/^3H-pGA solutions at eleven different concentrations for Ki determinations. […] To determine percent inhibition, the compound was tested at 1 and 10 μM. The final DMSO in the samples was 4%. Copper-Ysi beads (Amersham, #RPNQ0096) that have been diluted in binding buffer were added to each well to give a final concentration of 100 μg/well. The plates were sealed, covered with a foil-covered lid and shaken for 30 minutes at room temperature. The beads were allowed to settle for 30 minutes after which the plates were counted using a Packard TopCount NXT instrument. This procedure has also been adapted for medium throughput using a Beckman Biomek FX. Samples were run in duplicate and on two separate days to assure an accurate value of Ki.
For Ki determinations, the corrected cpm's (actual cpm's minus background) were plotted vs. inhibitor concentration using GraphPad Prism software. […] The IC50 was then used to calculate the Ki by using the Cheng-Prusoff equation: […]
This is normally true when the observed IC50 is […] the HSP-90 concentration. For a tight binding inhibitor, the following equation can be applied: […]
EL and ELo are the radioligand-HSP-90 complexes in the presence and absence of inhibitor, respectively. EL/ELo represents the fractional signal in the presence of inhibitor. Io, Eo, and Lo are the inhibitor, HSP-90, and radioligand concentrations, respectively.

This passage reports inhibition results from US20090215742A1, “AMIDE […]” (PFIZER, INC., priority 2005, published 2009).

As usually defined, the inhibition is the change of the read-out against control, counted positive when it falls. For the compound `O=C(c1ccc(O)cc1O)N1CCC(COc2cccc(Cl)c2)C1` (stereo not drawn) [Example 87, 4-({3-[(3-chlorophenoxy)methyl]pyrrolidin-1-yl}carbonyl)benzene-1,3-diol], the inhibition at 1 µM was 36.7% and the inhibition at 10 µM was 65%. In the case of `O=C(c1ccc(O)cc1O)N1CCC(c2ccc(F)cc2)CC1` [Example 70, 4-{[4-(4-fluorophenyl)piperidin-1-yl]carbonyl}benzene-1,3-diol], the inhibition at 1 µM came out at 40.2% and the inhibition at 10 µM worked out at 79.1%. Taken in the same sequence, the figures for `O=C(c1ccc(O)cc1O)N1CCOC[C@@H]1c1ccccc1` [Example 135, 4-[(3-phenylmorpholin-4-yl)carbonyl]benzene-1,3-diol] were 15.9% and 44.7%. The like results for `Cc1ccc(OC2CCN(C(=O)c3ccc(O)cc3O)CC2)cc1` [Example 74, 4-{[4-(4-methylphenoxy)piperidin-1-yl]carbonyl}benzene-1,3-diol] were, in that order, 47.7% and 80.7%. Taken in the same sequence, the figures for `Cc1nc2c(s1)CN(C(=O)c1ccc(O)cc1O)CC2` [Example 104, 4-[(2-methyl-6,7-dihydro[1,3]thiazolo[5,4-c]pyridin-5(4H)-yl)carbonyl]benzene-1,3-diol] were 33.9% and 74.3%. On to `O=C(c1ccc(O)cc1O)N1CCOC(COc2ccccc2)C1` (stereo not drawn) [Example 112, 4-{[2-(phenoxymethyl)morpholin-4-yl]carbonyl}benzene-1,3-diol], for which the inhibition at 1 µM was found to be 48.1% and the inhibition at 10 µM was 80.5%. Turning to `O=C(c1ccc(O)cc1O)N1CC=CCC1` [Example 97, 4-(3,6-dihydropyridin-1(2H)-ylcarbonyl)benzene-1,3-diol], the inhibition at 1 µM came out at 62.7% and the inhibition at 10 µM amounted to 82.6%. With `Cc1ccc(O)c(C(=O)N2Cc3ccccc3C2)c1` [Example 30, 2-(1,3-dihydro-2H-isoindol-2-ylcarbonyl)-4-methylphenyl], the inhibition at 1 µM was 5.8% and the inhibition at 10 µM was 61.2%. Taken in the same sequence, the figures for `O=C(c1ccc(O)cc1O)N1CCC2(CC1)CC(OCc1ccccc1F)CO2` (stereo not drawn) [Example 51, 4-({3-[(2-fluorobenzyl)oxy]-1-oxa-8-azaspiro[4.5]dec-8-yl}carbonyl)benzene-1,3-diol] were 22.1% and 70.9%. Taken in the same sequence, the figures for `O=C(c1ccc(O)cc1O)N1CCC(Oc2ccccc2)CC1` [Example 71, 4-[(4-phenoxypiperidin-1-yl)carbonyl]benzene-1,3-diol] were 37.3% and 79.3%.

For the compound `O=C(c1ccc(O)cc1O)N1CCCCC1c1nccs1` (stereo not drawn) [Example 62, 4-{[2-(1,3-thiazol-2-yl)piperidin-1-yl]carbonyl}benzene 1,3-diol], the inhibition at 1 µM amounted to 12% and the inhibition at 10 µM worked out at 64.4%.

On to `O=C(c1ccc(O)cc1O)N1CCC(CCc2cncnc2)CC1` [Example 50, 4-{[4-(2-pyrimidin-5-ylethyl)piperidin-1-yl]carbonyl}benzene-1,3-diol], for which the inhibition at 1 µM is 34.6% and the inhibition at 10 µM came out at 77.7%.

For the compound `CN(Cc1ccc(Oc2ccccc2)cc1)C(=O)c1ccc(O)cc1O` [Example 107, 2,4-dihydroxy-N-methyl-N-(4-phenoxybenzyl)benzamide], the inhibition at 1 µM amounted to 51.1% and the inhibition at 10 µM worked out at 83.4%.

Consider `COc1ccc2cc(O)c(C(=O)N3Cc4ccccc4C3)cc2c1` [Example 25, 3-(1,3-dihydro-2H-isoindol-2-ylcarbonyl)-6-methoxy-2-naphthol], for which the inhibition at 1 µM came out at 9.9% and the inhibition at 10 µM came out at 13.7%. Taken in the same sequence, the figures for `O=C(c1ccc(O)cc1O)N1CCC(c2cccc(Cl)c2)C1` (stereo not drawn) [Example 96, 4-{[3-(3-chlorophenyl)pyrrolidin-1-yl]carbonyl}benzene-1,3-diol] were 20.8% and 67.6%. `O=C(c1ccc(O)cc1O)N1CCc2ccccc2C1` [Example 109, 4-(3,4-dihydroisoquinolin-2(1H)-ylcarbonyl)benzene-1,3-diol]: the inhibition at 1 µM amounted to 68% and the inhibition at 10 µM stood at 87.2%. The like results for `CC1CCN(C(=O)c2ccc(O)cc2O)CC1` [Example 42, 4-[(4-methylpiperidin-1-yl)carbonyl]benzene-1,3-diol] were, in that order, 59.9% and 86.5%. Turning to `O=C(c1ccc(O)cc1O)N1CCOCC(O)(COC2CCCC2)C1` (stereo not drawn) [Example 61, 4-({6-[(cyclopentyloxy)methyl]-6-hydroxy-1,4-oxazepan-4-yl}carbonyl)benzene 1,3-diol], the inhibition at 1 µM was determined as 37.7% and the inhibition at 10 µM came out at 75.6%.

Consider `O=C(c1ccc(O)cc1O)N1CCC(c2ccccc2)C1` (stereo not drawn) [Example 93, 4-[(3-phenylpyrrolidin-1-yl)carbonyl]benzene-1,3-diol], for which the inhibition at 1 µM is 34.5% and the inhibition at 10 µM was 76.1%. The like results for `O=C(c1ccc(O)cc1O)N1CCn2cnnc2C1` [Example 136, 4-(5,6-dihydro[1,2,4]triazolo[4,3-a]pyrazin-7(8H)-ylcarbonyl)benzene-1,3-diol] were, in that order, 10.4% and 47.8%. For `Cc1ccc(OCC2CCCN(C(=O)c3ccc(O)cc3O)C2)cn1` (stereo not drawn) [Example 60, 4-[(3-{[(6-methylpyridin-3-yl)oxy]methyl}piperidin-1-yl)carbonyl]benzene 1,3-diol], the inhibition at 1 µM is 77.6% and the inhibition at 10 µM worked out at 88.1%. The like results for `Cc1noc(C)c1COCC1COCCN(C(=O)c2ccc(O)cc2O)C1` (stereo not drawn) [Example 98, 4-[(6-{[(3,5-dimethylisoxazol-4-yl)methoxy]methyl}-1,4-oxazepan-4-yl)carbonyl]benzene-1,3-diol] were, in that order, 26.7% and 65.9%. The like results for `COc1ccc2oc(N3CCN(C(=O)c4ccc(O)cc4O)CC3)nc2c1` [Example 127, 4-{[4-(5-methoxy-1,3-benzoxazol-2-yl)piperazin-1-yl]carbonyl}benzene-1,3-diol] were, in that order, 21.1% and 60.3%.

`O=C(c1ccc(O)cc1O)N1CCC(Cc2ccc(Cl)cc2)CC1` [Example 43, 4-{[4-(4-chlorobenzyl)piperidin-1-yl]carbonyl}benzene-1,3-diol]: the inhibition at 1 µM came out at 35.9% and the inhibition at 10 µM was found to be 73.6%. The like results for `Cc1nccc(-c2ccc(O)c(C(=O)N3Cc4ccccc4C3)c2)n1` [Example 35, 2-(1,3-dihydro-2H-isoindol-2-ylcarbonyl)-4-(2-methylpyrimidin-4-yl)phenol] were, in that order, 6.1% and 32.8%. Taken in the same sequence, the figures for `O=C(c1ccc(O)cc1O)N1CCOCC(COCc2c(Cl)cccc2Cl)C1` (stereo not drawn) [Example 122, 4-[(6-{[(2,6-dichlorobenzyl)oxy]methyl}-1,4-oxazepan-4-yl)carbonyl]benzene-1,3-diol] were 48.2% and 79%. Taken in the same sequence, the figures for `Cc1ccc(C(=O)N2Cc3ccccc3C2)c(O)c1` [Example 27, 2-(1,3-dihydro-2H-isoindol-2-ylcarbonyl)-5-methylphenol] were 0.2% and 26.2%.

Consider `O=C(c1ccc(O)cc1O)N1CCCCC1c1cccc(F)c1` (stereo not drawn) [Example 57, 4-{[2-(3-fluorophenyl)piperidin-1-yl]carbonyl}benzene-1,3-diol], for which the inhibition at 1 µM came to 73.7% and the inhibition at 10 µM stood at 88.2%.

On to `O=C(c1ccc(O)cc1O)N1CCCCC1CCC1CCCC1` (stereo not drawn) [Example 44, 4-{[2-(2-cyclopentylethyl)piperidin-1-yl]carbonyl}benzene-1,3-diol], for which the inhibition at 1 µM stood at 82.4% and the inhibition at 10 µM worked out at 90.5%. The like results for `CN(CCc1ccccc1)C(=O)c1ccc(O)cc1O` [Example 108, 2,4-dihydroxy-N-methyl-N-(2-phenylethyl)benzamide] were, in that order, 40.5% and 83.1%. The like results for `CN(Cc1nnc(-c2ccc(F)cc2)o1)C(=O)c1ccc(O)cc1O` [Example 119, N-{[5-(4-fluorophenyl)-1,3,4-oxadiazol-2-yl]methyl}-2,4-dihydroxy-N-benzamide] were, in that order, 50.9% and 82.8%. Turning to `O=C(c1cc(Cl)cc(Cl)c1O)N1Cc2ccccc2C1` [Example 208, 2,4-dichloro-6-(1,3-dihydro-2H-isoindol-2-ylcarbonyl)phenol], the inhibition at 10 µM stood at 0%.
